Laboratory results as given in ChEMBL document CHEMBL1201862, “PubChem BioAssay data set” (2004).
Active and inactive are the calls of the source.

Legend:
[1] = molecular target: Mu-type opioid receptor (Homo sapiens, UniProt P35372); format: functional, cell-based;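 also: U2OS cells with beta-arrestin recruitment to OPRM1 by beta-gal complementation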
[2] = molecular target: 5-hydroxytryptamine receptor 2A (Mus musculus, UniProt P35363); format: functional, cell-based;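 also: CHO-K1 cells with tagged receptor and beta-arrestin; agonist potency measured as compound-induced activation of the receptor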
Sequence of 5-hydroxytryptamine receptor 2A (P35363 whole entry): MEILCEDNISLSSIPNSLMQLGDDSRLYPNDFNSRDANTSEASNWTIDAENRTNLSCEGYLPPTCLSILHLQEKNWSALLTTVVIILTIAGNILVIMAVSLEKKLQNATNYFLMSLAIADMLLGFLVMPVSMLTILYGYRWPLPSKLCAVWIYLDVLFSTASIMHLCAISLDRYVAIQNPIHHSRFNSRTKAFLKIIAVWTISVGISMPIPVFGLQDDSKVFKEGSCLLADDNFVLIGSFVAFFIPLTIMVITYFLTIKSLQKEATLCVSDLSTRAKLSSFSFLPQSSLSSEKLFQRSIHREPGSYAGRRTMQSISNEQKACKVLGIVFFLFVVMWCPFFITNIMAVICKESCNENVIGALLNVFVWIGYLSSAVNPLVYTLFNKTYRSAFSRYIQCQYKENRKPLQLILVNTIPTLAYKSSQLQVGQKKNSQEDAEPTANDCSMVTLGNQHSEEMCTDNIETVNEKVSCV

[3] = molecular target: T1, Caspase-6 (Homo sapiens, UniProt P55212); test: inhibition of CASP6 peptide cleavage – biochemical, VEID-R110 fluorescence, cherry-pick, dose response (AID 720632)
T1 sequence (P55212 whole entry): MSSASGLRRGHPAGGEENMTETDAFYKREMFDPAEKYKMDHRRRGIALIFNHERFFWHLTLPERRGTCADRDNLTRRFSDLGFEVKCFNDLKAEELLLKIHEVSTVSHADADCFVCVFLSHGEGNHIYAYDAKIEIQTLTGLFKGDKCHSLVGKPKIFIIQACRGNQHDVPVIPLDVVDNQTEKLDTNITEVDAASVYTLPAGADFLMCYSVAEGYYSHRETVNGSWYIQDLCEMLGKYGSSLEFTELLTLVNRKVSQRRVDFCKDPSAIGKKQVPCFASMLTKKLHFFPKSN

[4] = molecular target: Beta-lactamase (Salmonella choleraesuis (strain SC-B67), UniProt Q5J463); test: Epi-absorbance-based counterscreen for selective VIM-2 inhibitors: dose response biochemical high throughput screening assay to identify inhibitors of TEM-1 serine-beta-lactamase.
Sequence of Beta-lactamase (Salmonella choleraesuis (strain SC-B67), UniProt Q5J463) (Q5J463 whole entry): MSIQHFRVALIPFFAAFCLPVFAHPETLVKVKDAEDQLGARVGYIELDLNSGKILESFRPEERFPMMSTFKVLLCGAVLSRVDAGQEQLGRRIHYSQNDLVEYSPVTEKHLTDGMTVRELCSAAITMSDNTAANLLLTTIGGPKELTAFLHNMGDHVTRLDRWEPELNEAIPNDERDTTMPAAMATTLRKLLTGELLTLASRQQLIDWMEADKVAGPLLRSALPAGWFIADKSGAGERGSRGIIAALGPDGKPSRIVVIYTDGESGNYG

[5] = molecular target: T2, Beta-lactamase (Pseudomonas aeruginosa, UniProt Q79MP6); test: inhibition of IMP-1 beta-lactamase activity – biochemical, epi-absorbance, selectivity assay for VIM-2 inhibitor project, dose response (AID 1920)
T2 sequence (Q79MP6 whole entry): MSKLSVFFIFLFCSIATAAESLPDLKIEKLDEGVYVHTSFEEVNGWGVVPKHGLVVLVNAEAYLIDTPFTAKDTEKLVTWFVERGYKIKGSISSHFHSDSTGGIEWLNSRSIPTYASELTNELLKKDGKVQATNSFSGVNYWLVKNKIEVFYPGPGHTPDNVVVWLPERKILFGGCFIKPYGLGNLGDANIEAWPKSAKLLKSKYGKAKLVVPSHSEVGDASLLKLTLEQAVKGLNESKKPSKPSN

[6] = molecular target: T2, Beta-lactamase; test: […] counterscreen for selective VIM-2 inhibitors: dose response biochemical high throughput screening assay to identify inhibitors of IMP-1 metallo-beta-lactamase.
[7] = general cell-killing toxicity readout – plate reader, dry powder samples, cytotoxicity control for PAX8 inhibitor project, dose response (AID 743021); format: functional, cell-based
[8] = molecular target: Paired box protein Pax-8 (Homo sapiens, UniProt Q06710); test: PAX8 transcriptional activity inhibition in RMG-I – RMG-I cells, luciferase, cherry-pick, dose response (AID 687027); format: functional, cell-based;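 also: luciferase reporter driven by Pax8 target thyroperoxidase promoter measured by SteadyGlo luminescence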
Sequence of Paired box protein Pax-8 (Q06710 whole entry): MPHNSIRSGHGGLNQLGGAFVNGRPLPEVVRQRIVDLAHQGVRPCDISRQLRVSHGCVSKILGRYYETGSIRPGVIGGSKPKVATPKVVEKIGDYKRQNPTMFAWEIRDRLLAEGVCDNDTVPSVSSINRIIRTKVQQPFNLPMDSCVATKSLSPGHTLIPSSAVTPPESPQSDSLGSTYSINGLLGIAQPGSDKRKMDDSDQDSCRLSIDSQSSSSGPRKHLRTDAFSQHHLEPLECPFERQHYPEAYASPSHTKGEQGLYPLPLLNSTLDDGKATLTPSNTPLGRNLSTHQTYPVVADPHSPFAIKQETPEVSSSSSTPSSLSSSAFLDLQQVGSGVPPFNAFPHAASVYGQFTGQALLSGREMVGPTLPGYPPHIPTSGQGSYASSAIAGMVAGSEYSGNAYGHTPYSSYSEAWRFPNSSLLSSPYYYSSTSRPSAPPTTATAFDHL

[9] = tested on: H9c2; test: cells; format: functional, cell-based; details: Rattus norvegicus, H9c2, Myocardium;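 also: confirmatory concentration-response retest of ultra-high-throughput screening hits for modulation of myocardial damage; cell death induced by hydrogen peroxide oxidative stress; compound pretreatment for 60 min then peroxide exposure for 2 h; potency is for protecting the cells against peroxide damage rather than for killing them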
[10] = molecular target: Heat shock protein HSP 90-alpha (Homo sapiens, UniProt P07900); format: functional, organism-based
[11] = tested on: Vero; test: viability of Vero cells under compound – cytotoxicity control for flavivirus capping enzyme inhibitors (AID 588742); format: functional; details: Chlorocebus sabaeus
[12] = molecular target: Genome polyprotein (dengue virus type 2, UniProt P29990); test: flavivirus cap methylation enzyme inhibition – biochemical, confirmation dose response, primary screen (AID 588689); format: functional
Sequence of Genome polyprotein (P29990 2492-3391 limits assumed): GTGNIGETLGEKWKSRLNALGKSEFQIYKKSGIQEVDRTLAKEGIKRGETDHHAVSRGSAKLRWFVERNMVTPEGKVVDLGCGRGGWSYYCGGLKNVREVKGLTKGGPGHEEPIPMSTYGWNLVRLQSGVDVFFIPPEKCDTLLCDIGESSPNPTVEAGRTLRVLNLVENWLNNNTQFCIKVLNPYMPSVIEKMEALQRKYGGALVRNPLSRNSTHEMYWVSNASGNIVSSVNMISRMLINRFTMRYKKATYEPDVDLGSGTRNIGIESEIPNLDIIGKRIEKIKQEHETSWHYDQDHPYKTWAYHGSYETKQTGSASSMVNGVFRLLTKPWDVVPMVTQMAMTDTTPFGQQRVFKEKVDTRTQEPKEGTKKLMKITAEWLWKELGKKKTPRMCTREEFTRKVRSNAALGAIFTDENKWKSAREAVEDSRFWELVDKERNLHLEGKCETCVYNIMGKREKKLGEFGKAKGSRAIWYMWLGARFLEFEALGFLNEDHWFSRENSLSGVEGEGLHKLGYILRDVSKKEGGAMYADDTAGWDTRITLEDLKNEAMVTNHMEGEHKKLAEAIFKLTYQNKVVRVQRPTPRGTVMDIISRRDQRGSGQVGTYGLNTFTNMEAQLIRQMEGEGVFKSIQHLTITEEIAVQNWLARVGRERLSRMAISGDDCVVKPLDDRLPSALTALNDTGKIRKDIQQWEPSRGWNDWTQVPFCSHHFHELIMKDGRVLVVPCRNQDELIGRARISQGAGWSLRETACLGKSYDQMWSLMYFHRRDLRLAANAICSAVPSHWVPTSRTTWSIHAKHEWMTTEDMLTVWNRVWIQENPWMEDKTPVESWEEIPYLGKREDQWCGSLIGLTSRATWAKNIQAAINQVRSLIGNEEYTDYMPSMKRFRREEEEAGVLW

[13] = molecular target: T3, Rac GTPase-activating protein 1 (Homo sapiens, UniProt Q9H0H5); test: blockers of MgcRacGAP-driven Rac1 GTP hydrolysis – biochemical, ADP Hunter fluorescence, primary and confirmatory, confirmation (AID 624330); format: functional
T3 sequence (Q9H0H5 whole entry): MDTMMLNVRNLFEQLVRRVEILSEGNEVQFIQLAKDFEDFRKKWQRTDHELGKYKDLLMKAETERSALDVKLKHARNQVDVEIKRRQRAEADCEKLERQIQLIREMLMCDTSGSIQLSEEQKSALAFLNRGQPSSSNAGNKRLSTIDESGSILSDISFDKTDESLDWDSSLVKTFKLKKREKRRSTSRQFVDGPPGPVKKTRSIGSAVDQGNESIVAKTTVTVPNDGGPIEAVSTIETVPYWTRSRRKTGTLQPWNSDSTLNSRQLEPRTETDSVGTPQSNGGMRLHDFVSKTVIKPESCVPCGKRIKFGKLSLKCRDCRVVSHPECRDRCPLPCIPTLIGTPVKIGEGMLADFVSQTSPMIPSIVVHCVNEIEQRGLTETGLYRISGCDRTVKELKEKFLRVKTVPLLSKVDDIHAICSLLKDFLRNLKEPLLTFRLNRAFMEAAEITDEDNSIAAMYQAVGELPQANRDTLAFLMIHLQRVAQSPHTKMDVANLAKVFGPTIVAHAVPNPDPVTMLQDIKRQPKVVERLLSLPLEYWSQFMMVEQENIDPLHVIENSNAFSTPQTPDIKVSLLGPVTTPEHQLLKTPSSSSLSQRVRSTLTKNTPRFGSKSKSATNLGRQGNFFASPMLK

[14] = Counterscreen for activators of the function of SWI/SNF related, matrix associated, actin dependent regulator of chromatin, subfamily a, member 2 (SMARCA2, BRM): Luminescence-based cell-based high throughput dose response assay to identify non-selective compounds using the VP16 reporter assay.; format: functional
[15] = molecular target: T4, DNA repair protein RAD52 homolog (Homo sapiens, UniProt P43351); format: functional, biochemical
T4 sequence (P43351 whole entry): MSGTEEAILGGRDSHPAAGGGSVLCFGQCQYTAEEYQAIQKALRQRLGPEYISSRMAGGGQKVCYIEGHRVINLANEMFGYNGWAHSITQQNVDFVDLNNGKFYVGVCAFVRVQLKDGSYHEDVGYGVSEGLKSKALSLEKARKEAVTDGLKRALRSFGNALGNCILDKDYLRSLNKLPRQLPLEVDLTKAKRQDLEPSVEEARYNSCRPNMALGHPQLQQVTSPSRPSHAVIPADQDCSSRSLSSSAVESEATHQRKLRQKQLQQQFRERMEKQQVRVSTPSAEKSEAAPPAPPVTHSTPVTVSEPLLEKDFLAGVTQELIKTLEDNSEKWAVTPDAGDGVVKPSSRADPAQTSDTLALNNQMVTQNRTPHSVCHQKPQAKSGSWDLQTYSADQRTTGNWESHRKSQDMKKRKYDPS

[16] = molecular target: SWI/SNF-related matrix-associated actin-dependent regulator of chromatin subfamily A member 2 (Homo sapiens, UniProt P51531); test: Luminescence-based cell-based high throughput dose response assay to identify activators of the function of SWI/SNF related, matrix associated, actin dependent regulator of chromatin, subfamily a, member 2 (SMARCA2, BRM).; format: functional
Sequence of SWI/SNF-related matrix-associated actin-dependent regulator of chromatin subfamily A member 2 (P51531 whole entry): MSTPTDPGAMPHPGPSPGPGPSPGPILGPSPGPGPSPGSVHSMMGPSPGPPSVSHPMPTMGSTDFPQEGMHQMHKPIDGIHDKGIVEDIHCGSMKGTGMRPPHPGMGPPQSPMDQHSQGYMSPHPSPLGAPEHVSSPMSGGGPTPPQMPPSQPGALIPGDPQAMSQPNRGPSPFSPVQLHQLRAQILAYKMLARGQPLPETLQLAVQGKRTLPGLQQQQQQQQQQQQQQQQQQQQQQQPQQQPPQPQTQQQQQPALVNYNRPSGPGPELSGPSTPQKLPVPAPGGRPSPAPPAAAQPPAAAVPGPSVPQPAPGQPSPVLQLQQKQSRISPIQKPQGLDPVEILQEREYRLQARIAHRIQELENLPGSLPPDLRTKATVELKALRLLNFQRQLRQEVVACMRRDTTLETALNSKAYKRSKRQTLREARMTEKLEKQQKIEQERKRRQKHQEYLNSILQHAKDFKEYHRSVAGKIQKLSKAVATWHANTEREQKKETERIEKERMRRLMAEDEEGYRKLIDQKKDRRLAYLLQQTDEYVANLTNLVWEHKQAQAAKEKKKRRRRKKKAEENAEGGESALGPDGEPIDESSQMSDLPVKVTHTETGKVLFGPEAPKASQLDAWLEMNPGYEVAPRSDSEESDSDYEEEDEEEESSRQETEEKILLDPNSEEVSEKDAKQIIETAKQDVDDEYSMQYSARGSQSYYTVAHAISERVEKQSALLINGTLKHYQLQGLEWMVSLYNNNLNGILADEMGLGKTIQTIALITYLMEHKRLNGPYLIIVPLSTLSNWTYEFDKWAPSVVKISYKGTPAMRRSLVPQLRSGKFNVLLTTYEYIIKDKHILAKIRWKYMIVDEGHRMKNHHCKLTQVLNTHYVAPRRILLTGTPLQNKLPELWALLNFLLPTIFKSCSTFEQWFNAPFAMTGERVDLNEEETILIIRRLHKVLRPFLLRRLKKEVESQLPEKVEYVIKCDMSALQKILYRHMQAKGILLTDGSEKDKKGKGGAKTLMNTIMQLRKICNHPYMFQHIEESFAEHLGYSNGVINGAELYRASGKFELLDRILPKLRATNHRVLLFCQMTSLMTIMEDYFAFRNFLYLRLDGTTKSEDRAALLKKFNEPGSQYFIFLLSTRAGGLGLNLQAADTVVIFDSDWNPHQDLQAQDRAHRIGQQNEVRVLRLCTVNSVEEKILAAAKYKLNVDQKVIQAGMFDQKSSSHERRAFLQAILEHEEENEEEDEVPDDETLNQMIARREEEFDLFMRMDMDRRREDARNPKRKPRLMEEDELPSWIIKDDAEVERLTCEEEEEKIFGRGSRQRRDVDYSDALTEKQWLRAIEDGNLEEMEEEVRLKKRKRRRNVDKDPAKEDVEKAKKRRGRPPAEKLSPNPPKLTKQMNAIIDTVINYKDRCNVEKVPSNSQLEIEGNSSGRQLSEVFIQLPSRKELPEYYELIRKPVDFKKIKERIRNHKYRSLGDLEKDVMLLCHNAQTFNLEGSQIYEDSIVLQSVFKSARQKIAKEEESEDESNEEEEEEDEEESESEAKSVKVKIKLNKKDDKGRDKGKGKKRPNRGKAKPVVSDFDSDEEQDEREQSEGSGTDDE

[17] = viability loss in HeLa cells – cytotoxicity control for MgcRacGAP inhibitor project, dose response (AID 624300); format: functional

Sequence of Mu-type opioid receptor (P35372 whole entry): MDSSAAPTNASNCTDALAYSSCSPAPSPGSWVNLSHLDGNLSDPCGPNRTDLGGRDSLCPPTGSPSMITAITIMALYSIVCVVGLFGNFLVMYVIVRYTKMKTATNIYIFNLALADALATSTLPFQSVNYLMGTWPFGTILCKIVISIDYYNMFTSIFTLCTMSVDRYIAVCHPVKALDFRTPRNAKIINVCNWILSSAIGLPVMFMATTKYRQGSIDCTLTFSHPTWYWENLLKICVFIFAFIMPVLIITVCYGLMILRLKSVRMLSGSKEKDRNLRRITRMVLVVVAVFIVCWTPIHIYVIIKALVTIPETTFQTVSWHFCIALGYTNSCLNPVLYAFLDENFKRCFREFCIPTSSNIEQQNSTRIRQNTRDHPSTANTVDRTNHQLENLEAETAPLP

With `CCOc1ccc(NC(=O)CCN2CCN(c3ccccc3F)CC2)cc1` the EC50 [1] was 92.6 µM (inactive) and the EC50 [2] was 92.5 nM (active).
With `Nc1nc(-c2ccccc2)nc(O)c1N=O` the AC50 [3] was 11.6 µM (active).
For `O=C(O)C(NC(=O)c1ccccc1)=C(Cl)Cl`, the IC50 [4] was > 59.6 µM (inactive), the IC50 [5] was > 59.6 µM (inactive) and the IC50 [6] was > 59.6 µM (inactive).
In the case of `O=C(C(=O)N(Cc1ccccc1)Cc1ccccc1)c1c(-c2ccccc2)[nH]c2ccccc12`, the AC50 [7] is reported as 44.5 µM (active), the AC50 [8] is reported as 7.45 µM (active) and the IC50 [9] is reported as > 79 µM (inactive).
In the case of `Oc1c(Cl)cccc1Cc1cc(Cl)cc(Cl)c1O`, the AC50 [10] is reported as 3.05 µM (active), the CC50 [11] is reported as 19.3 µM (active) and the IC50 [12] is reported as 45.5 µM (active).
With `COc1cc2c[n+](C)c3c4ccccc4ccc3c2cc1OC` the IC50 [13] was 60.5 µM (active), the EC50 [14] was > 91.1 µM (inactive) and the AC50 [15] was 360 nM (active). The EC50 [16] was > 91.1 µM (inactive) and the CC50 [17] was 66 µM (active).
With `CC(C)=CCNc1ncnc2c1c(C#N)cn2C1OC(CO)C(O)C1O` (configuration not stated) the AC50 [8] was 3.79 µM (active), the EC50 [14] was > 91.1 µM (inactive) and the EC50 [16] was > 91.1 µM (inactive).
For `CCN(CC)C(=O)N[C@H]1C[C@@H]2c3cccc4[nH]cc(c34)C[C@H]2N(C)C1` [TERGURIDE], the EC50 [1] was 92.5 µM (inactive) and the EC50 [2] was 3.8 nM (active).
